# Test results taken from patent publication US11655244B2, “Carbazole compounds and methods of use thereof” (GSNO Therapeutics, Inc, priority 2017, dated 2023).
# “Also recorded” adds a separate entry of the source. Like-named read-outs stand apart in the source and are kept apart here.
# Key:
# [1] = test system: Bleomycin-induced idiopathic pulmonary fibrosis model in male C57BL/6 mice; assay: Bleomycin-induced idiopathic pulmonary fibrosis model; type: in vivo; conditions: 10 mg/kg, i.p., once daily from day 14 to 28
# Procedure: Compound 17 was made-up fresh every 4 days. A required amount of the test compound was weighed in a glass vial and the purity factor was calculated. A stock solution of 1 mg/ml (10 mg/kg) was made in distilled water (pH 8) and the subsequent 3 and 1 mg/kg doses (concentrations) were obtained by serial dilution of the 1 mg/ml stock solution. A clear and transparent solution was observed. Animals were dosed with Compound 17 at 1 mg/kg, 3 mg/kg and 10 mg/kg, i.p (intraperitoneal), once daily from day 14 to 28.
# Pirfenidone was weighed in a glass vial and suspended in 0.5% methyl cellulose to obtain a 10 mg/ml formulation. A clear homogenous suspension was observed. Animals were dosed with Pirfenidone at 100 mg/kg, p.o., b.i.d., from day 14 to 28.
# GSNOR enzyme = GSNOR enzyme (Homo sapiens, UniProt P11766); assay: GSNOR inhibition assay (rate of NADH consumption, 340 nm absorbance); type: biochemical
# Procedure: The following compounds were also prepared based on the methods described herein, using the appropriate starting materials. Table 2a and Table 2b also provides the % GSNOR inhibition at 20 μM of compounds described herein. […] The buffer was 100 mM phosphate buffer (pH 7.4.) The rate of NADH consumption for each well was determined by ultraviolet spectroscopy. Plates were read on a Molecular Devices Spectra Max UV/Visible Spectrophotometer/plate reader and the change in 340 nm absorbance at 25° C. was recorded for each well at 10 sec intervals over the duration of the recording period (2˜5 minutes). The rate was measured from the linear portion of the curve. Final test compound concentration was 20 μM. The mean % inhibition from 3 test compound wells and 5 control wells was measured as the percentage of the mean no compound+enzyme−the mean no enzyme, no compound control.
# [2] = test system: collagen induced arthritis model in DBAJ1 mice; assay: Collagen induced arthritis model; type: in vivo; conditions: 15 mg/kg daily from day 8
# Procedure: Compound 17 was tested in a collagen induced arthritis model in DBAJ1 mice. Compound 17 was started on day 8 when the arthritis was established, as in a therapeutic model, and the DBAJ1 mice were then treated daily with Compound 17 (15 mg/kg). Mice were challenged with bovine collagen II+complete adjuvant at day 0. Clinical scores were determined as follows: 0=normal; 0.5=erythema and edema in only one digit; 1=erythema and mild edema of the footpad, or ankle or two to five digits; 2=erythema and moderate edema of two joints (footpad, ankle, two to five digits); 3=erythema and severe edema of the entire paw; 4=reduced swelling and deformation leading to an incapacitated limb.
# Measurement of anti-collagen antibodies in the collagen induced arthritis model of rheumatoid arthritis in DBAJ1 Mice was by an anti-collagen ELISA kit by standard methods.
# Sequence of GSNOR enzyme (P11766 whole entry): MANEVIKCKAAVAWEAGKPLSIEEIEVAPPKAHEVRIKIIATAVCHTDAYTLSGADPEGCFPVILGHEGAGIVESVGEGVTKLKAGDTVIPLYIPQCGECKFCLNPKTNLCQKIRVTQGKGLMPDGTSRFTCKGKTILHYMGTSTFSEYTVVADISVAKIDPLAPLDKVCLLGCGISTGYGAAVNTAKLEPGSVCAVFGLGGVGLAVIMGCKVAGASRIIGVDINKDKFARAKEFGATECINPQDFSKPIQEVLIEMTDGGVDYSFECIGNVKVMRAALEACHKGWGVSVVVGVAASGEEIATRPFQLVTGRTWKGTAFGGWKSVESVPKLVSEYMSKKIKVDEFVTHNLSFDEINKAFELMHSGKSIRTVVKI
smiles,measurement,setting,value
"NC(=O)CCn1c2ccc(-n3ccnc3)cc2c2ccc(CCC(=O)O)cc21 [Compound 17, 3-(imidazol-1(H)-yl)-7-(2-carboxylethyl)-9(H)-(2-aminocarbonylethyl) carbazole]",pulmonary fibrosis (Ashcroft score and percentage collagen proportionate area) vs disease control,[1],notable mitigation of pulmonary fibrosis; also recorded: decreased lung fibrosis
same,inhibition at 20 µM,"GSNOR enzyme; Table 2a, test compound 20 μM, pH 7.4, 25° C., read-out: % Inhibit. at 20 μM",92.8%
same,inhibition at 20 µM,"GSNOR enzyme; Table 2b, test compound 20 uM, read-out: % GSNOR Inhibition at 20 uM",92.8%
same,arthritis (clinical score),[2],inhibits arthritis
same,production of anti-collagen antibodies,[2]; ELISA,inhibits production of anti-collagen antibodies
